# Measured values reported in PubChem BioAssay AID248 (DTP/NCI, 2004).
# “And” between values parts separate entries of the source, which are not always exact repeats. Equal values may be shown once. Inconclusive results and toxic doses are left out.
# System: L1210 leukemia ip in BDF1 mice, survival T/C
# Experiment: NCI In Vivo Anticancer Drug Screen. Data for tumor model L1210 Leukemia (intraperitoneal) in B6D2F1 (BDF1) mice
# Conditions: endpoint: mean survival time, higher = longer survival
# Method in brief: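 Tumor was transplanted into mice, which were then dosed with test compound or vehicle alone. Survival was recorded for each group, and the treated figure was expressed relative to the control figure.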
# [1] = dose: 100.0 mg/kg/injection, schedule: Q01DX001 (ip), vehicle: saline with Tween-80
# [2] = dose: 200.0 mg/kg/injection, schedule: Q01DX001 (ip), vehicle: saline with Tween-80
# [3] = dose: 400.0 mg/kg/injection, schedule: Q01DX001 (ip), vehicle: saline with Tween-80
# [4] = dose: 200.0 mg/kg/injection, schedule: Q01DX001 (ip), vehicle: carboxymethylcellulose (CMC)
# [5] = dose: 400.0 mg/kg/injection, schedule: Q01DX001 (ip), vehicle: carboxymethylcellulose (CMC)
# [6] = dose: 100.0 mg/kg/injection, schedule: Q01DX001 (ip), vehicle: saline
# [7] = dose: 100.0 mg/kg/injection, schedule: Q01DX009 (ip), vehicle: saline
# [8] = dose: 100.0 mg/kg/injection, schedule: Q04DX003 (ip), vehicle: saline
# [9] = dose: 200.0 mg/kg/injection, schedule: Q01DX001 (ip), vehicle: saline
# [10] = dose: 200.0 mg/kg/injection, schedule: Q04DX003 (ip), vehicle: saline
# [11] = dose: 400.0 mg/kg/injection, schedule: Q04DX003 (ip), vehicle: saline
# [12] = dose: 100.0 mg/kg/injection, schedule: Q01DX009 (ip), vehicle: Klucel (hydroxypropylcellulose) (HPC)
# [13] = dose: 200.0 mg/kg/injection, schedule: Q01DX009 (ip), vehicle: Klucel (hydroxypropylcellulose) (HPC)
# [14] = dose: 400.0 mg/kg/injection, schedule: Q01DX009 (ip), vehicle: Klucel (hydroxypropylcellulose) (HPC)
# [15] = dose: 100.0 mg/kg/injection, schedule: Q01DX001 (ip), vehicle: Klucel (hydroxypropylcellulose) (HPC)
# [16] = dose: 100.0 mg/kg/injection, schedule: Q01DX009 (ip), vehicle: saline with Tween-80
# [17] = dose: 200.0 mg/kg/injection, schedule: Q01DX009 (ip), vehicle: saline with Tween-80
# [18] = dose: 100.0 mg/kg/injection, schedule: Q04DX003 (ip), vehicle: saline with Tween-80
# [19] = dose: 200.0 mg/kg/injection, schedule: Q04DX003 (ip), vehicle: saline with Tween-80
# [20] = dose: 400.0 mg/kg/injection, schedule: Q04DX003 (ip), vehicle: saline with Tween-80
# [21] = dose: 12.5 mg/kg/injection, schedule: Q01DX009 (ip), vehicle: saline
# [22] = dose: 25.0 mg/kg/injection, schedule: Q01DX009 (ip), vehicle: saline
# [23] = dose: 50.0 mg/kg/injection, schedule: Q01DX009 (ip), vehicle: saline
# [24] = dose: 100.0 mg/kg/injection, schedule: Q04DX002 (ip), vehicle: saline with Tween-80
# [25] = dose: 200.0 mg/kg/injection, schedule: Q04DX002 (ip), vehicle: saline with Tween-80
# [26] = dose: 400.0 mg/kg/injection, schedule: Q04DX002 (ip), vehicle: saline with Tween-80
structure (smiles),measurement,setting,value
O=S(=O)(/N=C1C=C/C(=N\S(=O)(=O)c2ccccc2)C(Sc2ccccc2)=C\1)c1ccccc1,T/C,[1],91 % of control
same,T/C,[2],94 % of control
same,T/C,[3],105 % of control
O=C(O)/C=C\c1ccccc1,T/C,"dose: 100.0 mg/kg/injection, schedule: Q01DX009 (ip), vehicle: other",100 % of control
same,T/C,"dose: 200.0 mg/kg/injection, schedule: Q01DX009 (ip), vehicle: other",95 % of control
O=NN(CCCl)C(=O)Nc1ccc2ccccc2c1,T/C,[4],161 % of control
same,T/C,"dose: 300.0 mg/kg/injection, schedule: Q01DX001 (ip), vehicle: carboxymethylcellulose (CMC)",172 % of control
same,T/C,[5],96 % of control
CSC(=N)N,T/C,[6],105 % of control
same,T/C,[7],99 % of control
same,T/C,"dose: 100.0 mg/kg/injection, schedule: Q04DX002 (ip), vehicle: saline",100 % of control
same,T/C,[8],101 % of control
same,T/C,[9],96 % of control
same,T/C,"dose: 200.0 mg/kg/injection, schedule: Q01DX009 (ip), vehicle: saline",91 % of control
same,T/C,"dose: 200.0 mg/kg/injection, schedule: Q04DX002 (ip), vehicle: saline",100 % of control
same,T/C,[10],97 % of control
same,T/C,"dose: 400.0 mg/kg/injection, schedule: Q01DX009 (ip), vehicle: saline",89 % of control
same,T/C,[11],97 % of control
c1ccc2c3c([nH]c2c1)C1CC2CC(C1)CC3C2,T/C,"dose: 100.0 mg/kg/injection, schedule: Q04DX003 (ip), vehicle: alcohol",105 % of control
same,T/C,"dose: 200.0 mg/kg/injection, schedule: Q04DX003 (ip), vehicle: alcohol",96 % of control
same,T/C,"dose: 400.0 mg/kg/injection, schedule: Q04DX003 (ip), vehicle: alcohol",96 % of control
O=Nc1c(O)ccc2ccccc12,T/C,"dose: 3.12 mg/kg/injection, schedule: Q01DX009 (ip), vehicle: Klucel (hydroxypropylcellulose) (HPC)",90 % of control
same,T/C,"dose: 5.0 mg/kg/injection, schedule: Q01DX001 (ip), vehicle: saline",98 % of control
same,T/C,"dose: 6.25 mg/kg/injection, schedule: Q01DX009 (ip), vehicle: Klucel (hydroxypropylcellulose) (HPC)",95 % of control
same,T/C,"dose: 10.0 mg/kg/injection, schedule: Q01DX001 (ip), vehicle: saline",104 % of control
same,T/C,"dose: 12.5 mg/kg/injection, schedule: Q01DX009 (ip), vehicle: Klucel (hydroxypropylcellulose) (HPC)",92 % of control
same,T/C,"dose: 20.0 mg/kg/injection, schedule: Q01DX001 (ip), vehicle: saline",95 % of control
same,T/C,"dose: 25.0 mg/kg/injection, schedule: Q01DX001 (ip), vehicle: saline with Tween-80",94 % of control
same,T/C,"dose: 25.0 mg/kg/injection, schedule: Q01DX009 (ip), vehicle: Klucel (hydroxypropylcellulose) (HPC)",104 % of control
same,T/C,"dose: 40.0 mg/kg/injection, schedule: Q01DX001 (ip), vehicle: saline",101 % of control
same,T/C,"dose: 50.0 mg/kg/injection, schedule: Q01DX001 (ip), vehicle: saline with Tween-80",104 % of control
same,T/C,"dose: 80.0 mg/kg/injection, schedule: Q01DX001 (ip), vehicle: saline",106 % of control
same,T/C,[1],91 % of control
CN(C)C(N)=O,T/C,"dose: 75.0 mg/kg/injection, schedule: Q01DX009 (ip), vehicle: saline",102 % of control
same,T/C,"dose: 150.0 mg/kg/injection, schedule: Q01DX009 (ip), vehicle: saline",98 % of control
same,T/C,"dose: 300.0 mg/kg/injection, schedule: Q01DX009 (ip), vehicle: saline",100 % of control
CCCCOC(=O)c1ccc(NC(=O)Nc2ccccc2CC)cc1,T/C,[12],102 % of control
same,T/C,[13],109 % of control
same,T/C,[14],94 % of control
CC1(C)N=C(N)N=C(N)N1c1ccc(CCNC(=O)c2ccc(S(=O)(=O)F)cc2)cc1,T/C,"dose: 25.0 mg/kg/injection, schedule: Q01DX001 (ip), vehicle: Klucel (hydroxypropylcellulose) (HPC)",90 % of control
same,T/C,"dose: 50.0 mg/kg/injection, schedule: Q01DX001 (ip), vehicle: Klucel (hydroxypropylcellulose) (HPC)",96 % of control
same,T/C,[15],90 % of control
Cc1ccc2ncccc2c1N (tested in a mixture with another compound),T/C,"dose: 100.0 mg/kg/injection, schedule: Q04DX003 (ip), vehicle: gum acacia",93 % of control
same,T/C,"dose: 200.0 mg/kg/injection, schedule: Q04DX003 (ip), vehicle: gum acacia",98 % of control
same,T/C,"dose: 400.0 mg/kg/injection, schedule: Q04DX003 (ip), vehicle: gum acacia",94 % of control
Cc1ccc2c(c1)Nc1ccccc1C(=O)N2,T/C,[12],98 % of control
same,T/C,[13],93 % of control
same,T/C,[14],91 % of control
CCOC(=O)CNC(=O)Oc1cccc2cccnc12,T/C,[16],103 % of control
same,T/C,[17],101 % of control
COc1ccccc1CNCCCO,T/C,"dose: 50.0 mg/kg/injection, schedule: Q01DX001 (ip), vehicle: saline",96 % of control
same,T/C,[6],102 % of control
same,T/C,[9],106 % of control
same,T/C,"dose: 400.0 mg/kg/injection, schedule: Q01DX001 (ip), vehicle: saline",100 % of control
CCOC(=O)Nc1ccc([N+](=O)[O-])cc1[N+](=O)[O-],T/C,[1],101 % of control
same,T/C,[18],100 % of control
same,T/C,[2],98 % of control
same,T/C,[19],93 % of control
same,T/C,[3],95 % of control
same,T/C,[20],98 % of control
CC(N)Cc1cn(C)c2ccccc12 (stereo not given),T/C,"dose: 6.25 mg/kg/injection, schedule: Q01DX009 (ip), vehicle: saline",96 % of control
same,T/C,[21],105 % of control
same,T/C,[22],103 % of control
same,T/C,"dose: 25.0 mg/kg/injection, schedule: Q04DX003 (ip), vehicle: saline",101 % of control
same,T/C,[23],105 % of control
same,T/C,"dose: 50.0 mg/kg/injection, schedule: Q04DX003 (ip), vehicle: saline",95 % of control
same,T/C,[7],97 % of control
same,T/C,[8],104 % of control
CC[Si](Cl)(CC)CCCl,T/C,[8],98 % of control
same,T/C,[10],97 % of control
same,T/C,[11],117 % of control
CN(CC(=O)C(C#N)c1ccccc1)c1ccccc1 (stereo not given),T/C,"dose: 50.0 mg/kg/injection, schedule: Q01DX001 (ip), vehicle: carboxymethylcellulose (CMC)",98 % of control
same,T/C,"dose: 100.0 mg/kg/injection, schedule: Q01DX001 (ip), vehicle: carboxymethylcellulose (CMC)",93 % of control
same,T/C,[4],91 % of control
same,T/C,[5],98 % of control
O=C(Nc1cccc([N+](=O)[O-])c1)Oc1ccc(-c2ccccc2)cc1,T/C,[16],101 % of control and 103 % of control
same,T/C,[24],97 % of control and 111 % of control
same,T/C,[18],93 % of control
same,T/C,[17],100 % of control and 101 % of control
same,T/C,[25],96 % of control and 104 % of control
same,T/C,[19],93 % of control
same,T/C,"dose: 400.0 mg/kg/injection, schedule: Q01DX009 (ip), vehicle: saline with Tween-80",94 % of control
same,T/C,[26],93 % of control and 103 % of control
same,T/C,[20],102 % of control
O=C(N/C=C/NC(=O)c1ccccc1)c1ccccc1,T/C,[15],104 % of control
same,T/C,"dose: 200.0 mg/kg/injection, schedule: Q01DX001 (ip), vehicle: Klucel (hydroxypropylcellulose) (HPC)",111 % of control
same,T/C,"dose: 400.0 mg/kg/injection, schedule: Q01DX001 (ip), vehicle: Klucel (hydroxypropylcellulose) (HPC)",104 % of control
C=C(Br)CNC(C)=O,T/C,[21],113 % of control
same,T/C,[22],106 % of control
same,T/C,[23],98 % of control
same,T/C,[7],120 % of control
same,T/C,[8],113 % of control
same,T/C,[10],113 % of control
Cc1ccccc1C(O)c1ccccc1Cl (stereo not given),T/C,[1],109 % of control
same,T/C,[2],102 % of control
same,T/C,[3],94 % of control
S=C1SC2(CCCCCC2)NC2=C1CCCCC2,T/C,[24],103 % of control
same,T/C,[25],89 % of control
same,T/C,[26],89 % of control
O=C(O)CSc1nc2ccccc2[nH]1,T/C,[18],100 % of control
same,T/C,[19],96 % of control
same,T/C,[20],88 % of control
CCCCCCCCC(CCCC1CCCC1)CCCC1CCCC1,T/C,[1],98 % of control
same,T/C,[2],94 % of control
same,T/C,[3],96 % of control
